In this experiment the target is APC (Homo sapiens, UniProt P04070). The experiment in a line: Xa-1-stage coagulation assay, inhibition of APC anticoagulant activity. On the set-up: Protein C consists of a 155 amino acid residue light chain and a 262 amino acid residue heavy chain; from tissue; host or cells: human plasma factor IX concentrate. The class given is biochemical. The protocol:
For testing the inhibition of the synthetic peptides on APC activity described above, Xa-1-stage coagulation assays were also performed as described. See Seegers et al., Thrombosis Res., 13:233-243 (1978); Marlar et al., supra; and Walker et al., J. Biol. Chem., 265:1484-1489 (1990). PC heavy chain-derived peptides listed below in Table 6 and PC light chain-derived peptides listed below in Table 7 were prepared as described above and separately admixed for a final concentration of 2 mM with 120 nM APC in 100 μl of TBS-BSA at pH 7.4 to form separate peptide-APC admixtures. The resulting admixtures were maintained for ten minutes at 37° C. Separate aliquots of peptides maintained under the same conditions in the absence of APC served as controls for the inhibitory effect of synthetic peptides on APC anticoagulant activity. After the maintenance period, 100 μl of NHP and 100 μl of 200 μg/ml of rabbit brain cephalin (Sigma) were admixed into each peptide admixture and maintained for 200 seconds at 37° C. to form pre-coagulation admixtures. In some experiments, Factor VIII deficient plasma (George King Bio-Medical, Inc.) was used in the place of NHP to determine the effect of Factor VIII on the assay system. Coagulation was then initiated by the admixture of 100 μl of 0.62 nM human activated Factor X (Xa) (Enzyme Research Laboratories, Southbend, Ind.) in TBS-BSA containing 30 mM CaCl2 prewarmed to 37° C. to each of the pre-coagulation admixtures.
The time for clot formation was measured by an Electra 700 Automatic Coagulation Timer (Medical Laboratory Automation, Inc., Mount Vernon, N.Y.). Each peptide's effect was determined in duplicate. The results of the inhibition of APC anticoagulant activity by synthetic peptides as measured in Xa-1-stage coagulation assays are presented in Tables 6 and 7 below with the APTT assay results and are presented as the mean values obtained with APTT assays. Data for results with PC heavy chain-derived peptides are shown in Table 6 and data for results with PC light chain-derived peptides are shown in Table 7.
The results of inhibition of APC anticoagulant activity by PC light chain-derived peptides in a Xa-1 stage coagulation assay are shown in Table 7. The assay was performed in the presence of NHP. Peptides used in the assay were prepared as described in Example 1 and are listed in Table 7 by their corresponding residue positions in native PC protein (SEQ ID NO 1). For all peptides except PC142-155 used in the Xa-1 stage assays listed in Table 7, cysteine residues in the native PC amino acid residue sequence were substituted by either serine or glycine in the synthesized peptide. This was done to prevent multiple disulfide formation and subsequent potential polymerization among peptides with multiple cysteines. […]

Sequence of APC (P04070 43-197 limits assumed): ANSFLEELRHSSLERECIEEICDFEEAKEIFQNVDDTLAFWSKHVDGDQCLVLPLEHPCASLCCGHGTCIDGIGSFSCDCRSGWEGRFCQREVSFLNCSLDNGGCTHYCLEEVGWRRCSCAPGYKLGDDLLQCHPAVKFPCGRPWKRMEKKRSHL
Sequence of APC (P04070 212-450 limits assumed): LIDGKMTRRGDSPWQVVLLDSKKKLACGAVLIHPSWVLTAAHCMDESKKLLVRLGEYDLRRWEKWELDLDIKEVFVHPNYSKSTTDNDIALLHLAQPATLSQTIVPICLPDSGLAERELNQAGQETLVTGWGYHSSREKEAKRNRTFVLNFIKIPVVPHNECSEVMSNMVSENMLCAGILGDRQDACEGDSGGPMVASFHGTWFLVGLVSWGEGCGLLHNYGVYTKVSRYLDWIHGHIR

With “MHKLREGKWRPKSR [Scrambled peptide, reference compound]”, the “inhibition of APC anticoagulant activity” value (Xa-1-stage assay) is “very little if any significant inhibition”.

One may read the inhibition as the drop in the measured response relative to a control, in per cent. With `CSCC[C@H](NC(=O)[C@H](CCCNC(=N)N)NC(=O)[C@H](CCCCN)NC(=O)[C@H](Cc1c[nH]c2ccccc12)NC(=O)[C@@H]1CCCN1C(=O)[C@H](CCCNC(=N)N)NC(=O)CN)C(=O)N[C@@H](CCC(=O)O)C(=O)N[C@@H](CCCCN)C(=O)N[C@@H](CCCCN)C(=O)N[C@@H](CCCNC(=N)N)C(=O)N[C@@H](CO)C(=O)N[C@@H](Cc1c[nH]cn1)C(=O)N[C@@H](CC(C)C)C(=O)N[C@@H](CS)C(N)=O` [PC142-155, Gly-Arg-Pro-Trp-Lys-Arg-Met-Glu-Lys-Lys-Arg-Ser-His-Leu], the IC50 (Xa-1-stage assay in NHP, read-out: 50% inhibition of APC anticoagulant activity) is 25 µM. The compound also displayed an inhibition at 500 µM (final peptide concentration 500 μM, NHP, 0 = no observable effect +10%) of 80%.
